Assay results published in patent EP0100673A2, “A method of enhancing neurofiber regrowth” (THE RESEARCH FOUNDATION OF STATE UNIVERSITY OF NEW YORK, priority 1982, dated 1984).

Legend:
Format in all cases: in vivo, rat
sciatic nerve [1] = test: Counts of myelinated and unmyelinated axons 5.0 mm distal to repair by electron microscopy; conditions: Electron Microscopy
Protocol: (§1) lwenty raty art anenthetizve with sel rompun (0.5 cc total volume). The right sciatic nerve is exposed and severed with microneuroscissors, and subsequently repaired microsurgically with 6-8 circumferential microsutures using 10-0 nylon. Immediately following surgery the treated animals receive 12 mg/kg Ac leupeptin in 5% DMSO (dimethylsulphoxide) as a bath on their sciatic nerve, 0.25 cc. total volume. Then the treated animals are injected intramuscularly in right hindlimb with 0.25 cc of a solution containing 12 mg/kg Ac leupeptin in 5% DMSO. Control animals receive the same surgical treatment, but the bath and intramuscular injection consist only of the solvent and 5% DMSO.
(§2) Thereafter, treated animals are injected twice weekly in the operated hindlimb with 12 mg/kg Ac leupeptin in 5% DMSO (0.25 cc total volume) for periods of 1 week, 1 month, two months, three months - and six months. Control animals are injected with 0.25 cc of 5% DMSO twice weekly in the operated hindlimb for the same time period.
(§3) Two treated and two control animals are assigned to each of the stated time periods.
(§4) A ten mm. portion of the repaired sciatic nerve is excised from each animal. This is fixed in 3.0% glutaraldehyde in 0.1 M sodium cacodylate, pH 7.3, overnight for electron microscopy. After post-fixation in 1.0% osmium tetroxide, ethanol dehydration and embedding in Polybed 812, both thick (1 micron) and thin (500 A°) transverse sections are cut on a ultramicrotome. Portions of the excised muscles receive similar preparation for electron microscopy.
(§5) Thick sections of the sciatic nerve are placed on microscope slots stained with toluidine blue and photographed at a constant magnification in the light microscope. Thin sections of both nerve and muscles are placed on 300 mesh copper grid calm, stained with uranyl acetate and lead citrate and photographed using a Hitachi HU-12 electron microscope.

[2] = system: muscles of the operated hindlimb; test: Myofiber diameter by light microscopy after sciatic nerve severing and microsurgical repair; conditions: for Average Myofiber Diameter (µm) by Light Microscopy: 12 mg/kg in 5% DMSO, bath + i.m. twice weekly; for % Difference Treated vs. Control: myofiber diameter
Protocol: as §1, §2, §3
All animals are sacrified by an overdose of pentobarbital, 1.0 cc total volume. The gastro- cnemius, soleus and extensor digitorum longus muscles of the operated hindlimb are execised from origin to insertion, weighed and then frozen in isopentane in liquid nitrogen […]. For light microscopy, cryostat sections are cut, placed on slides and stained with hematoxylin and eosin and/or ATPase histochemistry at pH's of 4.3 and 10.4. Myofiber diameters are determined by photographing hematoxylin and eosin sections at a constant magnification in the light microscope.

sciatic nerve [3] = test: Counts of myelinated axons 5.0 mm distal to repair by light microscopy; conditions: for Counts of Myelinated Axons - 5.0 mm Distal to Repair by Light Microscopy 1.0 X 10^5 µm^2 - of Area: 12 mg/kg in 5% DMSO, bath + i.m. twice weekly; for % Difference Treated vs. Control: myelinated axons distal, light microscopy
Protocol: as §1, §2, §3, §4, §5

CC(=O)N[C@@H](CC(C)C)C(=O)N[C@@H](CC(C)C)C(=O)N[C@H](C=O)CCCNC(=N)N [Ac leupeptin, acetyl-L-leu-L-leu-L-argininal]
% Difference Treated vs. Control (sciatic nerve [1]; #Myelinated Axons distal, One month): 25%
% Difference Treated vs. Control (sciatic nerve [1]; #Myelinated Axons distal, One week): 53%
% Difference Treated vs. Control (sciatic nerve [1]; #Myelinated Axons distal, Six Month): 1%
% Difference Treated vs. Control (sciatic nerve [1]; #Myelinated Axons distal, Three month): 58%
% Difference Treated vs. Control (sciatic nerve [1]; #Myelinated Axons distal, Two Month): 0%
% Difference Treated vs. Control (sciatic nerve [1]; #Unmyelinated Axons distal, One month): 70%
% Difference Treated vs. Control (sciatic nerve [1]; #Unmyelinated Axons distal, One week): >100%
% Difference Treated vs. Control (sciatic nerve [1]; #Unmyelinated Axons distal, Six Month): +30%
% Difference Treated vs. Control (sciatic nerve [1]; #Unmyelinated Axons distal, Three month): 61%
% Difference Treated vs. Control (sciatic nerve [1]; #Unmyelinated Axons distal, Two Month): 50%
Average Myofiber Diameter (µm) by Light Microscopy ([2]; One Month Treated, E.D.L.): 34.1 µm
Average Myofiber Diameter (µm) by Light Microscopy ([2]; One Month Treated, GASTROCNEMIUS): 34.5 µm
Average Myofiber Diameter (µm) by Light Microscopy ([2]; One Month Treated, SOLEUS): 39.4 µm
Average Myofiber Diameter (µm) by Light Microscopy ([2]; One Week Treated, E.D.L.): 44.6 µm
Average Myofiber Diameter (µm) by Light Microscopy ([2]; One Week Treated, GASTROCNEMIUS): 62.3 µm
Average Myofiber Diameter (µm) by Light Microscopy ([2]; One Week Treated, SOLEUS): 49.2 µm
Average Myofiber Diameter (µm) by Light Microscopy ([2]; Six Month Treated, E.D.L.): 75.3 µm
Average Myofiber Diameter (µm) by Light Microscopy ([2]; Six Month Treated, GASTROCNEMIUS): 73.1 µm
Average Myofiber Diameter (µm) by Light Microscopy ([2]; Six Month Treated, SOLEUS): 79.5 µm
Average Myofiber Diameter (µm) by Light Microscopy ([2]; Three Month Treated, E.D.L.): 44.3 µm
Average Myofiber Diameter (µm) by Light Microscopy ([2]; Three Month Treated, GASTROCNEMIUS): 57.2 µm
Average Myofiber Diameter (µm) by Light Microscopy ([2]; Three Month Treated, SOLEUS): 47.9 µm
Average Myofiber Diameter (µm) by Light Microscopy ([2]; Two Month Treated, E.D.L.): 28.9 µm
Average Myofiber Diameter (µm) by Light Microscopy ([2]; Two Month Treated, GASTROCNEMIUS): 35.4 µm
Average Myofiber Diameter (µm) by Light Microscopy ([2]; Two Month Treated, SOLEUS): 42.3 µm
% Difference Treated vs. Control ([2]; One Month, E.D.L.): +7%
% Difference Treated vs. Control ([2]; One Month, GASTROCNEMIUS): +3%
% Difference Treated vs. Control ([2]; One Month, SOLEUS): +24%
% Difference Treated vs. Control ([2]; One Week, E.D.L.): +5%
% Difference Treated vs. Control ([2]; One Week, GASTROCNEMIUS): +23%
% Difference Treated vs. Control ([2]; One Week, SOLEUS): +9%
% Difference Treated vs. Control ([2]; Six Month, E.D.L.): +29%
% Difference Treated vs. Control ([2]; Six Month, GASTROCNEMIUS): +26%
% Difference Treated vs. Control ([2]; Six Month, SOLEUS): +30%
% Difference Treated vs. Control ([2]; Three Month, E.D.L.): +18%
% Difference Treated vs. Control ([2]; Three Month, GASTROCNEMIUS): +3%
% Difference Treated vs. Control ([2]; Three Month, SOLEUS): +9%
% Difference Treated vs. Control ([2]; Two Month, E.D.L.): +10%
% Difference Treated vs. Control ([2]; Two Month, GASTROCNEMIUS): +18%
% Difference Treated vs. Control ([2]; Two Month, SOLEUS): +10%
myofiber diameter ([2]; treated muscle compared to control): significantly greater myofiber diameter when compared to control
Counts of Myelinated Axons - 5.0 mm Distal to Repair by Light Microscopy 1.0 X 10^5 µm^2 - of Area (sciatic nerve [3]; One Month Treated): 1467 1.0 X 10^5 µm^2 - of Area
Counts of Myelinated Axons - 5.0 mm Distal to Repair by Light Microscopy 1.0 X 10^5 µm^2 - of Area (sciatic nerve [3]; One Week Treated): 722 1.0 X 10^5 µm^2 - of Area
Counts of Myelinated Axons - 5.0 mm Distal to Repair by Light Microscopy 1.0 X 10^5 µm^2 - of Area (sciatic nerve [3]; Six Month Treated): 1620 1.0 X 10^5 µm^2 - of Area
Counts of Myelinated Axons - 5.0 mm Distal to Repair by Light Microscopy 1.0 X 10^5 µm^2 - of Area (sciatic nerve [3]; Three Month Treated): 2808 1.0 X 10^5 µm^2 - of Area
Counts of Myelinated Axons - 5.0 mm Distal to Repair by Light Microscopy 1.0 X 10^5 µm^2 - of Area (sciatic nerve [3]; Two Month Treated): 1625 1.0 X 10^5 µm^2 - of Area
% Difference Treated vs. Control (sciatic nerve [3]; One Month): +2%
% Difference Treated vs. Control (sciatic nerve [3]; One Week): +1%
% Difference Treated vs. Control (sciatic nerve [3]; Six Month): 0%
% Difference Treated vs. Control (sciatic nerve [3]; Three Month): +1%
% Difference Treated vs. Control (sciatic nerve [3]; Two Month): +12%
